The target of one experiment is T1, Mer (Homo sapiens, UniProt Q12866).
T1 construct: purchased Life Technologies
T1 sequence (Q12866 21-999): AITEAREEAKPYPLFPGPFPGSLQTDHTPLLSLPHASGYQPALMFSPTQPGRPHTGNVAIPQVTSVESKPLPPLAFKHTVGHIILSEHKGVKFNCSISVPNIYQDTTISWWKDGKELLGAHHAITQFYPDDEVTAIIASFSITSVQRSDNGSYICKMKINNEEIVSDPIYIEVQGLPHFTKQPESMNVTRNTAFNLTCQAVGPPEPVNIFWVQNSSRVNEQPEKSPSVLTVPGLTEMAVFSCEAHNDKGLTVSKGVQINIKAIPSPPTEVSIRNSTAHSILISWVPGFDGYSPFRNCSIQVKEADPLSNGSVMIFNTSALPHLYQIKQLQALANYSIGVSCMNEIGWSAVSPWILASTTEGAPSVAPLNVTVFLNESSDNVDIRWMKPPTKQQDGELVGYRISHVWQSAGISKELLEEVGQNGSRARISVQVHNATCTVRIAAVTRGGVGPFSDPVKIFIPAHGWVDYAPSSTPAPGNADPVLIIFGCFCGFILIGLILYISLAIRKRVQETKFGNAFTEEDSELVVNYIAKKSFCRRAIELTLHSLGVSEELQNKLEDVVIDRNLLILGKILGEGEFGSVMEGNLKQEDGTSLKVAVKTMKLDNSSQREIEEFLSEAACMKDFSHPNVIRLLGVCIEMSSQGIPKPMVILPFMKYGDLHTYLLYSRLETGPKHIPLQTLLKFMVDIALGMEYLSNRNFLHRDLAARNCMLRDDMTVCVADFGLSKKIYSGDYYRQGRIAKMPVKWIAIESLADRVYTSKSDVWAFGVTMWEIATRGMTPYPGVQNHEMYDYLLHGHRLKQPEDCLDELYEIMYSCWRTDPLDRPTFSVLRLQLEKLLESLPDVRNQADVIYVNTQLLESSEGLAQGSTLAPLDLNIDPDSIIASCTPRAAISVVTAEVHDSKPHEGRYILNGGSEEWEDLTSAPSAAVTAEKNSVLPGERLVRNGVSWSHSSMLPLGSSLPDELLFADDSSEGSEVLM
Kind of experiment: LanthaScreen Eu kinase binding assay for Mer. The settings on record: read-out: Mer kinase binding activity (Kd). As to the method: LanthaScreen® Eu Kinase Binding assays were conducted at Life Technologies using the manufacturer's specifications for each kinase indicated.
Briefly, the principle behind this assay is based upon the binding and displacement of an Alexa Fluor 647-labeled tracer to the kinase of interest. Binding of the tracer to the kinase is detected using an EU-labeled anti-tag antibody. Simultaneous binding of both the tracer and antibody to the kinase gives rise to a FRET-signal. Binding of an inhibitor to the kinase competes for binding with the tracer, resulting in a loss of FRET-signal.
A given compound was diluted in DMSO to make a stock compound solution. The stock compound solution was serially diluted over eight steps in DMSO. Each diluted compound solution in DMSO was diluted in kinase buffer. Afterwards four kinds of working solution were prepared. First, Tracer-Working solution consists of Tracer 236 and Kinase Buffer. Second, Axl, Mer, Tyro3 or Met/anti-GST-AB-Working solution contained one of the kinases Axl, and Mer or anti-GST-AB (=anti glutathione-S-transferase antibody) in Kinase Buffer. Third, anti-GST-AB-Working solution was made with anti-GST-AB and Kinase Buffer. Last, in the DMSO-Working solution DMSO was added to Kinase Buffer to a final concentration to 3%. Each of the four kinds of working solutions were separately added to the assay plate and then incubated for 1 h at room temperature. After incubation, the assay plate was measured with respect to the FRET-Signal with the EnVision (Perkin Elmer) using the program LanthaHTRF-Assay. Data evaluation was done in the Quattro Workflow software. Kd (the equilibrium dissociation constant) values were calculated relative to vehicle (DMSO) control wells.

A further experiment concerns CSF1R (M-NFS-60 cells). Kind of experiment: Cell Titer-Glo viability assay using M-NFS-60 cells. In kind it is cell-based. The settings on record: Mus musculus, read-out: Cellular CSF1R activity by M-NFS-60 viability assay (IC50 activity range). On the procedure: M-NFS-60 cells were cultured in RPMI-1640 medium containing 10% FBS, 0.05 mM 2-Mercaptoethanol, penicillin (100 U/ml)/streptomycin ([…]) and supplemented with 62 ng/ml recombinant human M-CSF at 37° C./5% CO2. Aliquots of the cells were seeded into a 96-well plate (2×10^5 cells in 100 μl/well) and then incubated at 37° C./5% CO2 1 h. Dissolve compound in 100% DMSO to make 10 mM stock solutions (Aliquots stored in the Nitrogen Cabinet). Dilute 10 mM compounds solutions for 2-fold in 100% DMSO to get 5 mM solutions (10 μl+10 μl DMSO), and then make a 3-fold serial dilution (10 μl+20 μl DMSO) for 10 doses. For reference compounds: Dilute 10 mM compounds solutions for 20-fold in 100% DMSO to get 0.5 mM solutions (2 μl+38 μl DMSO), and then make a 3-fold serial dilution (10 μl+20 μl DMSO) for 8 doses. The 96-well plate was equilibrated at room temperature for 30 min. 50 μl of CellTiter-Glo® Reagent added to each well and mixed for 2 min on an orbital shaker to induce cell lysis. The 96-well plate was incubated at room temperature for 10 min to stabilize luminescent signal. Luminescent was measured […] by EnVison plate reader. Calculations and Formulas: The following calculations and formulas are used for data analysis using XL Fit software: The curve fitting was made using the Sigmoidal Dose-Response Model (Fit model, 205).
A general note: Cellular ATP, detected with luciferase, serves as a proxy for viable cell number.

What is called Kd is a measure of binding affinity in units of concentration. The IC50 is the concentration that inhibits the measured activity by half.

The structures appear in SMILES notation.

In the case of `COc1cc2nccc(Oc3ccc(NC(=O)c4nn(CCOC5CC5)cc4OCC(F)(F)F)nc3)c2cc1OC` [Compound 153], on Mer, the Kd was < 100 nM. In addition, the half-inhibitory concentration (IC50) in the experiment with CSF1R (M-NFS-60 cells) was < 1000 nM.

Consider `CNCCn1cc(OCC(F)(F)F)c(C(=O)Nc2ccc(Oc3ccnc4cc(OC)c(OC)cc34)cc2F)n1` [Compound 154], for which the Kd on Mer was < 100 nM. Moreover, the IC50 in the experiment on CSF1R (M-NFS-60 cells) was 1000 to 10000 nM.

Regarding `CNCCn1cc(OCC(F)(F)F)c(C(=O)Nc2ccc(Oc3ccnc4cc(OC)c(OC)cc34)c(F)c2)n1` [Compound 155], the Kd at Mer was 100 to 500 nM. Also, in the experiment on CSF1R (M-NFS-60 cells), the 50% inhibitory concentration (IC50) lay in the range of 1000 to 10000 nM.

Take `CNCCn1cc(OCC(F)(F)F)c(C(=O)Nc2ccc(Oc3ccnc4cc(OC)c(OC)cc34)c(C)c2)n1` [Compound 156]: the Kd at Mer was 100 to 500 nM. In the experiment with CSF1R (M-NFS-60 cells), the IC50 lay within 1000 to 10000 nM.

On to `COc1cc2nccc(Oc3ccc(NC(=O)c4nn(C5CCN(C)C5)cc4OCC(F)(F)F)nn3)c2cc1OC` (centres unmarked) [Compound 157], for which the Kd at Mer was in the range of 100 to 500 nM. The IC50 in the experiment on CSF1R (M-NFS-60 cells) fell in the range of 1000 to 10000 nM.

In the case of `CCCn1cc(NCCC(F)(F)F)c(C(=O)Nc2ccc(Oc3ccnc4cc(OC)c(OC)cc34)cn2)n1` [Compound 158], the equilibrium dissociation constant (Kd) at Mer was < 100 nM. In addition, the IC50 in the experiment with CSF1R (M-NFS-60 cells) lay within 1000 to 10000 nM.

For `CCCn1cc(OCC2CNC2)c(C(=O)Nc2ccc(Oc3ccnc4cc(OC)c(OC)cc34)cn2)n1` [Compound 159], the dissociation constant (Kd) on Mer was ≥ 500 nM. The half-inhibitory concentration (IC50) in the experiment on CSF1R (M-NFS-60 cells) is ≥ 10000 nM.

Consider `CNCCOc1cn(C2CC2)nc1C(=O)Nc1ccc(Oc2ccnc3cc(OC)c(OC)cc23)nn1` [Compound 160], for which, at Mer, the Kd was ≥ 500 nM. The IC50 in the experiment with CSF1R (M-NFS-60 cells) was ≥ 10000 nM.

As to `COc1cc2nccc(Oc3ccc(NC(=O)c4nn(C5CC5)cc4OCC4COC4)nn3)c2cc1OC` [Compound 161], on Mer, the Kd is < 100 nM. The IC50 in the experiment with CSF1R (M-NFS-60 cells) is 1000 to 10000 nM.

For the molecule `COc1cc2nccc(Oc3ccc(NC(=O)c4nn(C5CC5)cc4OCC(F)F)nn3)c2cc1OC` [Compound 162], on Mer, the Kd was < 100 nM. For the same molecule, in the experiment with CSF1R (M-NFS-60 cells), the IC50 lay within 1000 to 10000 nM.

`COc1cc2nccc(Oc3ccc(NC(=O)c4nn(CC(C)O)cc4OCC4CCC4)nc3)c2cc1OC` (centres unmarked) [Compound 163]: the Kd on Mer is < 100 nM. Besides, the concentration for half-maximal inhibition (IC50) with CSF1R (M-NFS-60 cells) fell in the range of 1000 to 10000 nM.

Regarding `CCCn1cc(OCC2CCOCC2)c(C(=O)Nc2ccc(Oc3ccnc4cc(OC)c(OC)cc34)cn2)n1` [Compound 164], the Kd on Mer is < 100 nM. The concentration for half-maximal inhibition (IC50) with CSF1R (M-NFS-60 cells) is ≥ 10000 nM.

Take `CCCn1cc(OCCN(C)C)c(C(=O)Nc2ccc(Oc3ccnc4cc(OC)c(OC)cc34)c(F)c2)n1` [Compound 165]: the Kd at Mer is ≥ 500 nM. For the same molecule, in the experiment on CSF1R (M-NFS-60 cells), the IC50 was 1000 to 10000 nM.

Source of the values: patent publication US12162858B2, “Quinoline derivatives as inhibitors of AXL/MER RTK and CSF1R” (QURIENT CO., LTD., priority 2018, dated 2024).
